From patent publication US20200384124A1, “VECTOR FOR PHARMACOLOGICALLY ACTIVE MATER-INSOLUBLE MOLECULES, AND PROCESS OF PREPARING SAME” (priority 2017, published 2020)

Columns and labels:
[1] = system: SK-N-SH cells; assay: MTT cytotoxicity test of PTX and NPC2-PTX (2D); assay type: cell-based; conditions: Homo sapiens, 72 h
Protocol: (§1) The volume of seeding and treatment is maintained at 150 μL per well and each condition is carried out with a conventional incubation at 37° C. A cell viability test is carried out by an MTT test after 72 h of treatment. This test uses as reagent 3-(4,5-Dimethylthiazol-2-yl)-2,5-Diphenyltetrazolium Bromide (MTT), which is converted into formazan (crystal violet) by living cells. The latter absorbent at the wavelength of 600 nm is detectable by an absorbance measurement.
(§2) As soon as the formazan crystals are visible in the cells under a light field microscope, the medium is replaced by 150 μl of dimethylsulfoxide (DMSO). The cells are then lysed, the formazan crystals dissolved, and the absorbance is measured with a Multiskan spectrophotometer (Ascent, Labtec Systems with a filter at 600 nm.
(§3) The percentage of viability is obtained by comparing the absorbance value of the treated cells with the absorbance value of the untreated control cells, which is considered as a reference and equivalent to 100% of viability. The standard deviation is calculated from 3 independent experiments.

[2] = system: HMEC-1 cells; assay: MTT cytotoxicity test of PTX and NPC2-PTX (2D); assay type: cell-based; conditions: Homo sapiens, HMEC-1, 72 h
Protocol: as §1, §2, §3

[3] = system: U-87 MG spheroids; assay: 3D culture spheroid viability by Alamar Blue test; assay type: cell-based, human; conditions: 2.8 times the IC50, Alamar Blue
Protocol: Spheroids (cells in 3D culture) help to better represent the tumor environment. They are composed of necrotic cells in their center and proliferating cells in the periphery. […] The cells are maintained at 37° C. and 5% of CO2 and 10 μl of fresh medium are added every two days to all the wells (controls and treated). […] This measurement is done in one step and uses a reagent based on resazurin, which is reduced by living cells. The reduced compound (=resofurin) is detectable by fluorescence (λex=584 nm and λem=620 nm) and the signal measured is proportional to the number of living cells. Once the above treatment has been set up, 10 μL of Alamar Blue are added to each well 7 days or 14 days after treatment and the cells are incubated 12 h before the fluorescence measurement. The data are obtained by reading the fluorescence with POLARstar Omega (BMG LABETCH) after excitation at 584 nm and reading the emission at 620 nm.

[4] = system: U-87 MG spheroids; assay: 3D culture spheroid size by optical microscopy; assay type: cell-based, human
Protocol: Spheroids (cells in 3D culture) help to better represent the tumor environment. They are composed of necrotic cells in their center and proliferating cells in the periphery. […] The cells are maintained at 37° C. and 5% of CO2 and 10 μl of fresh medium are added every two days to all the wells (controls and treated). […] Before treatment and then every two days, the spheroids are observed under an optical microscope coupled to a camera (Nikon ECLIPSE TS100), at magnification*4.;

[5] = system: microtubular network in U-87-MG and HMEC-1 cells; assay: Indirect immunofluorescence of tubulin, comparison with PTX (Example 24); assay type: cell-based, human; conditions: 10, 50 and 100 nM, 6 h of treatment
Protocol: The U-87-MG and HMEC-1 cells are seeded on Lab-Tek® culture chambers (Nunc). […] After 6 h of treatment, the medium is replaced by a solution of ice-cold methanol making it possible to fix and permeabilize the cells. […] The labeling of the nucleus is carried out with a solution of DAPI or 4,6-diamidino-2-phenylindole (0.25 μg/ml; Sigma) for 2 min. The blade is finally mounted with Prolong® (Invitrogen) antifading. The observation is carried out with an epifluorescence microscope (Leica DM-IRBE) coupled with a digital camera (Princeton Instruments; CCD camera coolsnap FX).

[6] = system: U-87 MG cells; assay: MTT cytotoxicity test of PTX and NPC2-PTX (2D); assay type: cell-based, human
Protocol: as §1, with “A cell viability test is carried out by an MTT test after 72 h of treatment.” left out
as §2, §3

CC(=O)O[C@H]1C(=O)[C@@]2(C)[C@H]([C@H](OC(=O)c3ccccc3)[C@]3(O)C[C@H](OC(=O)[C@H](O)[C@@H](NC(=O)c4ccccc4)c4ccccc4)C(C)=C1C3(C)C)[C@]1(OC(C)=O)CO[C@@H]1C[C@@H]2O [PTX, paclitaxel]
IC50 [1]: 40.5 ± 7.8 nM | IC50 [2]: 5.7 ± 2 nM | decrease / inhibition of cell viability in 3D [3]: 10% | diameter of the spheroid at day 14 ([4]; 2.8 times IC50 (PTX 25 nM, NPC2-PTX 70 nM)): 757+/−22 μm | diameter of the spheroid at day 14 ([4]; 4 times the IC50 (PTX 40 nM, NPC2-PTX 100 nM)): 389+/−33 μm | diameter of the spheroid at day 14 ([4]; IC50 calculated in 2D (PTX 9 nM, NPC2-PTX 25 nM)): 800+/−11 μm | effects on microtubular network and cell shape [5]: the microtubular network is disturbed | inhibition of cell viability in 2D ([6]; 2.8 times the IC50): 70% | IC50 ([6]; Homo sapiens, U-87 MG, 72 h): 9.2 ± 1.2 nM
